Marks after values point to notes of the source that are not given here.
Key:
Runx2 = Runx2 luciferase reporter assay (p6xOSE2-luc); assay type: cell-based
Method: FIG. 1. depicts activity of compound I (LA-1) and compound 8 (LA-3) on osteoblast differentiation. FIG. 1: (A) The effects of test compounds (up to 500 nM) on osteoblast differentiation were evaluated by ALP staining. (B) The effect of test compounds (up to 50 nM) on osteoblast differentiation were evaluated by ALP staining. MS-275 was used as a positive control. The effects of test compounds on cell viability (C) and RUNX2 activity (D) were evaluated by CCK-8 assay and 6×OSE2-luciferase activity assay, respectively.
To measure Runx2 activity, p6×osteoblast-specific cis-acting element (OSE) 2-luc reporter vector was transiently transfected into C2C12 cells that were seeded in a 96-well plate at 5×10^3 cells/well as described previously (Kim et al., J. Cell Biochem. 2004, 9, 1239-1247). After 24 h, medium was replaced with DMEM containing 5% FBS with or without tanshinone IIA and/or BMP-2. After 24 h, the cells were lysed, and luciferase activity was measured using luciferase reporter assay system (Promega) and the Wallac EnVision microplate reader.

RAW264.7 cells = test: Osteoclastogenesis (RANKL-induced TRAP activity, multinucleated osteoclasts); assay type: cell-based
Method: FIG. 2 depicts activity of compound I (LA-1) and compound 8 (LA-3) on osteoclastogenesis. FIG. 2: (A) Effects of test compounds on the RANKL-induced TRAP activity. (B) Effects of test compounds on the RANKL-induced formation of TRAP-positive multinucleated osteoclasts. Effects of test compounds on osteoclast differentiation was evaluated in RAW264.7 cells. RAW264.7 cells were plated in 96-well plates at the density 1×10^3 and then serially diluted LA compounds were treated and incubated until multinucleated osteoclasts were observed under a microscope.
RAW264.7 cells were purchased from the ATCC and maintained in DMEM supplemented with 10% FBS, 100 U/ml of penicillin, and 100 μg/ml streptomycin with a change of medium every 3 days in humidified atmosphere of 5% CO2 in air at 37° C. For the osteoclast differentiation, RAW264.7 cells were suspended in α-minimal essential medium (α-MEM) supplemented with 10% FBS and 100 ng/ml RANKL (R&D Systems Inc., MN) and plated in a 96-well plate at 1×10^3 cells/well. The next day, cells were treated with largazole and then after an additional 3 days, multinucleated osteoclasts were observed.
Multinucleated osteoclasts were fixed with 10% formalin for 10 min and ethanol/acetone (1:1) for 1 min, and then stained by Leukocyte Acid Phosphatase Kit 387-A (Sigma, Mo.). […] Absorbance was measured at 410 nm, and TRAP activity was presented as % of control. […]

calvaria bone = test: In vivo bone regeneration model (calvaria bone defects); design: species or system rabbits
Method: All rabbits are anesthetized with an intramuscular dose of 0.1 ml/kg Zoletil (Virbac, France). The head is shaved, and the cutaneous surface is disinfected with povidone iod solution prior to the operation. The calvaria bone is exposed through a skin incision of ˜4 cm in length. Four similar circular bicortical defects (3-mm diameter) are made in the parietal bone using a trephine on a slow-speed electric handpiece, applying 0.9% physiologic saline irrigation. Defects are filled with 10 mg of bone graft substitute, MBCP (Biomatlante, France) soaked with 50 μl of PBS or LA-1. Closure of periosteum and subcutaneous tissues is done with lactomer (Syneture), while the skin is relocated with nylon:polyamide (Syneture). Postoperative antibiotics are administered, e.g., Gentamycin. Rabbits are sacrificed at 4 weeks after surgery.

C2C12 cells = test: mRNA induction of osteoblastogenesis markers and BMPs by quantitative real-time PCR; assay type: cell-based; details: for ALP mRNA level, fold change relative to the control / BMP-2 mRNA level, fold change relative to the control / BMP-4 mRNA level, fold change relative to the control / BMP-6 mRNA level, fold change relative to the control / BMP-7 mRNA level, fold change relative to the control / BMP-9 mRNA level, fold change relative to the control / OPN mRNA level, fold change relative to the control / RUNX2 mRNA level, fold change relative to the control: 6 days, C2C12 cells, mean ± SD
Method: Primers were designed using an on-line primer design program (Table 1). (S. Rozen, H. J. Skaletsky, Methods Mol. Biol. 2000, 132, 365-386.) Total RNA was isolated using TRIzol reagent (Life Technologies, MD) according to manufacturer's protocol. The concentration and purity of total RNA were calculated by measuring absorbance at 260 and 280 nm. First strand cDNA was synthesized using 2 μg of total RNA and 1 μM of oligo-dT18 primer and Omniscript Reverse Transcriptase (Qiagen, CA). SYBR green-based quantitative PCR was performed using the Stratagene Mx3000P Real-Time PCR system and Brilliant SYBR Green Master Mix (Stratagene, CA) with 3 μl of first-strand cDNA diluted 1:50 and 20 pmole of primers, according to the manufacturer's protocols. The PCR reaction consisted of three segments. The first segment (95° C. for 10 min) activated the polymerase; the second segment included 3-step cycling (40 cycles) at 94° C. for 40 sec (denaturation), 60° C. for 40 sec (annealing), and 72° C. for 1 min (extension); the third segment was performed to generate PCR product temperature dissociation curves (‘melting curves’) at 95° C. for 1 min, 55° C. for 30 sec, 95° C. for 30 sec. All reactions were run in triplicate, and data were analyzed by the 2^−ΔΔCT method (K. J. Livak, T. D. Schmittgen, Methods 2001, 25, 402-408.). GAPDH was used as the control gene. Significance was determined by Student's t-test with GAPDH-normalized 2^−ΔΔCT values. Differences were considered significant when P<0.05.

calvarial bones of mice = test: In vivo murine calvarial bone formation assay
Method: In vivo bone-forming activity of largazole was evaluated using lyophilized collagen sponges as described previously. […] Three weeks after drug implantation, the calvarias were harvested, fixed in 4% paraformaldehyde, decalcified in 12% EDTA, embedded in paraffin, and sectioned. Sections were deparaffinized through graded xylene washes, […] in a graded series of ethanol washes, and stained with hematoxylin and eosin (H&E).

CCCCCCCC(=O)SCC/C=C/[C@@H]1CC(=O)NCc2nc(cs2)C2=N[C@@](C)(CS2)C(=O)N[C@@H](C(C)C)C(=O)O1 [Largazole, largazole]
activity of RUNX2 (6×OSE2-luciferase activity assay) (Runx2; FIG. 1D): strongly induced the activity of RUNX2 | increase of Runx2 activity relative to the DMSO control (Runx2; largazole at 50 nM, p6×OSE2-luciferase reporter): 29 fold | inhibition of osteoclastogenesis (RAW264.7 cells): potential to inhibit the osteoclastogenesis | anabolic bone forming activity in vivo (calvaria bone): exhibited anabolic bone forming activity | ALP mRNA level, fold change relative to the control (C2C12 cells; largazole 1 nM): 1.85 ± 0.06^a fold | BMP-2 mRNA level, fold change relative to the control (C2C12 cells; largazole 1 nM): 2.15 ± 0.42^b fold | BMP-4 mRNA level, fold change relative to the control (C2C12 cells; largazole 1 nM): 0.91 ± 0.22 fold | BMP-6 mRNA level, fold change relative to the control (C2C12 cells; largazole 1 nM): 1.69 ± 0.12^b fold | BMP-7 mRNA level, fold change relative to the control (C2C12 cells; largazole 1 nM): 5.05 ± 0.31^c fold | BMP-9 mRNA level, fold change relative to the control (C2C12 cells; largazole 1 nM): 5.18 ± 0.74^c fold | OPN mRNA level, fold change relative to the control (C2C12 cells; largazole 1 nM): 1.33 ± 0.19 fold | RUNX2 mRNA level, fold change relative to the control (C2C12 cells; largazole 1 nM): 2.47 ± 0.39^b fold | ALP mRNA level, fold change relative to the control (C2C12 cells; largazole 50 nM): 324.04 ± 1.59^c fold | BMP-2 mRNA level, fold change relative to the control (C2C12 cells; largazole 50 nM): 6.29 ± 0.98^c fold | BMP-4 mRNA level, fold change relative to the control (C2C12 cells; largazole 50 nM): 2.38 ± 0.91^a fold | BMP-6 mRNA level, fold change relative to the control (C2C12 cells; largazole 50 nM): 7.15 ± 1.33^b fold | BMP-7 mRNA level, fold change relative to the control (C2C12 cells; largazole 50 nM): 17.12 ± 2.59^c fold | BMP-9 mRNA level, fold change relative to the control (C2C12 cells; largazole 50 nM): 12.14 ± 3.17^b fold | OPN mRNA level, fold change relative to the control (C2C12 cells; largazole 50 nM): 2.28 ± 0.12^b fold | RUNX2 mRNA level, fold change relative to the control (C2C12 cells; largazole 50 nM): 3.66 ± 1.19^a fold | ALP mRNA level, fold change relative to the control (C2C12 cells; largazole 100 nM): 263.33 ± 11.61^b fold | BMP-2 mRNA level, fold change relative to the control (C2C12 cells; largazole 100 nM): 6.34 ± 1.16^b fold | BMP-4 mRNA level, fold change relative to the control (C2C12 cells; largazole 100 nM): 3.48 ± 1.63 fold | BMP-6 mRNA level, fold change relative to the control (C2C12 cells; largazole 100 nM): 8.37 ± 0.88^c fold | BMP-7 mRNA level, fold change relative to the control (C2C12 cells; largazole 100 nM): 10.72 ± 1.90^c fold | BMP-9 mRNA level, fold change relative to the control (C2C12 cells; largazole 100 nM): 10.18 ± 2.22^b fold | OPN mRNA level, fold change relative to the control (C2C12 cells; largazole 100 nM): 0.83 ± 0.04^a fold | RUNX2 mRNA level, fold change relative to the control (C2C12 cells; largazole 100 nM): 2.06 ± 0.00^c fold | increase of Runx2 mRNA level relative to the DMSO control (C2C12 cells; largazole at 50 nM, real-time PCR): 3 fold | mRNA expression levels of BMPs (BMP-2, 4, 6, 7, and 9) (C2C12 cells; real-time PCR): significantly induced | woven bone formation at lower (50 μM) versus higher (100 μM) concentration (calvarial bones of mice; 50 μM compared with 100 μM, collagen sponge implant): more significant than that at the higher concentration | woven bone formation over the periosteum of the calvarial bones (calvarial bones of mice; collagen sponges soaked with largazole implanted, three weeks): induced woven bone formation
